This passage reports MIC, inhibition and Activity results from ChEMBL document CHEMBL4382202, “1-(2-Hydroxybenzoyl)-thiosemicarbazides are promising antimicrobial agents targeting d-alanine-d-alanine ligase in bacterio” (Eur J Med Chem, 2018).

Active and inactive are the calls of the source. No cut-off for these calls is given here. Some results are limits rather than exact numbers.

One test concerns Escherichia coli. The experiment in a line: Antibacterial activity against Escherichia coli ATCC 25922 after 18 to 24 hrs by microdilution assay. The format is functional, organism-based. For orientation: Dilution methods test growth across graded concentrations, often in twofold steps.
Test [1] has as its target T1, D-alanine--D-alanine ligase (Enterococcus faecalis (strain ATCC 700802 / V583)) (UniProt Q47758).
T1 sequence (whole entry): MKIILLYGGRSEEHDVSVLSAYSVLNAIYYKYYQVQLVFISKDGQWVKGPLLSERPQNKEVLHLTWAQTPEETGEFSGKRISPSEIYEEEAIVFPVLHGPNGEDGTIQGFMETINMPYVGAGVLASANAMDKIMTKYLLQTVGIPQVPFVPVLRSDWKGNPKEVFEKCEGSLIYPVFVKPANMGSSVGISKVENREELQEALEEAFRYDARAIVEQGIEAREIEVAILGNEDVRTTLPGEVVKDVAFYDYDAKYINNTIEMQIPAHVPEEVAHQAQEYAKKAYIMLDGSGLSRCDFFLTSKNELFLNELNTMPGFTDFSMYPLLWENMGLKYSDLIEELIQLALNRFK
The experiment in a line: Inhibition of Enterococcus faecalis JH2-2 C-terminal 6His-tagged DdlB expressed in Escherichia coli LMG194 at 10 uM preincubated for 30 mins followed by substrate addition and measured after 20 mins by Biomol Green reagent assay relative to control.

The next test concerns Pseudomonas aeruginosa. Briefly: Antibacterial activity against Pseudomonas aeruginosa PAO1 after 18 to 24 hrs by microdilution assay. The format is functional, organism-based.
The next test concerns Klebsiella pneumoniae. The experiment in a line: Antibacterial activity against Klebsiella pneumoniae ATCC 700603 after 18 to 24 hrs by microdilution assay. Format: functional, organism-based.
Test [2] addresses T1, D-alanine--D-alanine ligase (Enterococcus faecalis (strain ATCC 700802 / V583)). The experiment in a line: Inhibition of Enterococcus faecalis JH2-2 C-terminal 6His-tagged DdlB expressed in Escherichia coli LMG194 assessed as residual activity at 10 uM preincubated for 30 mins followed by substrate addition and measured after 20 mins by Biomol Green reagent assay relative to control.

Test [3] shares this target. Briefly: Inhibition of Enterococcus faecalis JH2-2 C-terminal 6His-tagged DdlB expressed in Escherichia coli LMG194 at IC50 after 10 mins by Biomol Green reagent assay relative to control.
Test [4] shares this target. Briefly: Inhibition of Enterococcus faecalis JH2-2 C-terminal 6His-tagged DdlB expressed in Escherichia coli LMG194 at IC50 after 90 mins by Biomol Green reagent assay relative to control.
Test [5] has the same target. The experiment in a line: Inhibition of Enterococcus faecalis JH2-2 C-terminal 6His-tagged DdlB expressed in Escherichia coli LMG194 preincubated for 30 mins followed by substrate addition and measured after 20 mins in presence of 0.01% Triton X-100 by Biomol Green reagent assay.

Consider `O=C(NNC(=S)Nc1ccccc1Cl)c1ccccc1O`, for which the MIC result in the test on Escherichia coli, in the test with Pseudomonas aeruginosa and in the test with Klebsiella pneumoniae was “inactive” each time. In addition, the inhibition in test [1] was greater than 30%.

For `O=C(NNC(=S)Nc1ccc(Cl)c(Cl)c1)c1ccc(O)cc1`, in test [2], the Activity is 100%.

With `O=C(NNC(=S)Nc1ccccc1F)c1ccccc1`, the Activity in test [2] is 100%. In test [1], `O=C(NNC(=S)Nc1ccc(F)cc1)c1ccccc1O` yielded an inhibition greater than 30%. `O=C(NNC(=S)Nc1cccc(F)c1)c1ccccc1O` came in with an inhibition in test [1] greater than 30%. As for `O=c1c2ccccc2ncn1NC(=S)Nc1ccccc1`, the Activity in test [2] turned out to be 100%. With `N#Cc1ccc(NC(=S)NNC(=O)c2ccccc2O)cc1`, in test [1], the inhibition was greater than 30%. Consider `O=C(NNC(=S)Nc1ccc(Cl)cc1Cl)c1ccccc1O`, for which the MIC result in the test on Escherichia coli, with Pseudomonas aeruginosa and with Klebsiella pneumoniae was “inactive” each time. The same compound yielded an inhibition in test [1] greater than 30%. Regarding `O=C(NNC(=S)Nc1ccc(Cl)c(Cl)c1)c1cc2ccccc2cc1O`, the inhibition in test [1] was greater than 30%. `N[C@@H]1CONC1=O` came in with an inhibition in test [1] greater than 30%. In turn, `O=C(NNC(=S)NCCCN1CCOCC1)c1ccccc1O` gave an inhibition in test [1] of 30%.

`O=C(NNC(=S)Nc1ccc([N+](=O)[O-])cc1)c1ccc(O)cc1`: the Activity in test [2] stood at 100%. In the case of `O=C(NNC(=S)Nc1ccccc1F)c1ccccc1O`, the inhibition in test [1] is greater than 30%. On the same count and under the same terms, the value for `CCCCCNC(=S)NNC(=O)c1ccccc1O` was greater than 30%.

Regarding `O=C(NNC(=S)Nc1ccc(OC(F)(F)F)cc1)c1ccccc1O`, the MIC entry in the test on Escherichia coli, in the test with Pseudomonas aeruginosa and in the test with Klebsiella pneumoniae was “inactive” throughout. The compound also gave an inhibition in test [1] greater than 30%. In test [1], `O=C(NNC(=S)Nc1cccnc1)c1ccccc1O` had an inhibition of 30%. As to `O=C(NNC(=S)Nc1ccc(OCc2ccccc2)cc1)c1ccccc1O`, the inhibition in test [1] is greater than 30%. Take `O=C(NNC(=S)Nc1cccc(F)c1)c1ccccc1`: the Activity in test [2] came to 100%.

Regarding `O=C(NNC(=S)Nc1cccc(Cl)c1)c1ccccc1O`, the MIC entry with Escherichia coli, in the test with Pseudomonas aeruginosa and in the test with Klebsiella pneumoniae was “inactive” throughout. For the same compound, the inhibition in test [1] was greater than 30%. Take `O=C(NNC(=O)c1ccccc1O)Nc1ccc(Cl)c(Cl)c1`: the Activity in test [2] turned out to be 100%. For the compound `COc1ccccc1NC(=S)NNC(=O)c1ccccc1O`, in test [1], the inhibition was greater than 30%. With `Nc1ccc(C(=O)NNC(=S)Nc2ccc(Cl)c(Cl)c2)c(O)c1`, the inhibition in test [1] is greater than 30%. `COc1ccccc1C(=O)NNC(=S)Nc1ccc(Cl)c(Cl)c1`: in test [2], the Activity came out at 100%. `CC(=O)c1ccc(NC(=S)NNC(=O)c2ccccc2O)cc1` had an inhibition in test [1] greater than 30%.

Turning to `O=C(NNC(=S)Nc1ccccc1Cl)c1ccccc1`, the Activity in test [2] stood at 100%. As to `O=C(NNC(=S)Nc1ccc(Cl)c(Cl)c1)c1ccc(I)cc1O`, the inhibition in test [1] is greater than 30%. Take `O=C(NNC(=O)c1ccccc1)Nc1ccc(Cl)c(Cl)c1`: the Activity in test [2] is 100%.

Consider `O=C(NNC(=S)Nc1ccc(Cl)cc1)c1ccccc1`, for which the Activity in test [2] was found to be 100%. In turn, `O=C(NNC(=S)Nc1ccc(Cl)cc1)c1ccccc1O` had an inhibition in test [1] greater than 30%.

In the case of `COc1ccc(NC(=S)NNC(=O)c2ccccc2O)cc1`, the inhibition in test [1] was greater than 30%. With `O=C(NNC(=S)Nc1ccc(Cl)c(Cl)c1)c1ccccc1`, the Activity in test [2] was determined as 100%. As to `O=C(NNC(=S)Nc1ccc(Cl)c(Cl)c1)c1ccc(F)cc1`, the Activity in test [2] came to 100%. Turning to `O=C(NNC(=S)Nc1ccc(F)cc1)c1ccccc1`, the Activity in test [2] is 100%. Regarding `O=C(NNC(=S)Nc1ccc(Cl)c(Cl)c1)c1cccc(F)c1`, the Activity in test [2] is 100%. Take `O=C(NNC(=S)Nc1ccccc1)c1ccccc1O`: the figures for the inhibition in test [3], in test [4] and in test [1] were 60%, greater than 90% and greater than 30%, respectively. Moreover, the inhibition result in test [5] was “Active”. On to `O=C(NNC(=S)Nc1ccc(Cl)c(Cl)c1)c1cccc(O)c1`, for which the Activity in test [2] came to 100%. With `O=C(NNC(=S)Nc1ccc(Cl)c(Cl)c1)c1ccccc1F`, the Activity in test [2] was determined as 100%. In test [1], `O=C(NNC(=S)Nc1cccc2ccccc12)c1ccccc1O` came in with an inhibition greater than 30%.

For `O=C(NNC(=S)Nc1cccc(I)c1)c1ccccc1O`, in test [1], the inhibition is greater than 30%. As to `O=C(NNC(=S)Nc1cccc(Cl)c1)c1ccccc1`, the Activity in test [2] is 100%.

What is called inhibition is the drop in the measured response relative to a control, in per cent.
